# Tested on: IL-2
# Assay: PHA-IL2 (cell activation and cytokine analysis)
# Assay type: cell-based
# Conditions: 50% inhibition concentration class
# How it was run: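 Cells were seeded in 96-well plates at 1.0-2.0×10^6 cells/ml in 150 ul of RPMI containing 0.5% fetal calf serum. Test compounds, at up to ≤20 uM, were preincubated with the cells for 30 minutes, then phytohemagglutinin (PHA) was added and cultures were stimulated for 24-48 hours at 37 degrees C./5% CO2. Supernatant IL-2 was then quantified by standard ELISA.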
row,IC50 [nM],SMILES
1,< 1000,O=C(COc1ccccc1-c1ccc(F)cc1)N1CCC(CCc2ccc(O)cc2)CC1 [Compound 280]
2,< 1000,CC(C)Oc1cccc(CCC2CCN(C(=O)COc3ccc(C#N)cc3-c3ccccc3O)CC2)c1 [Compound 414]
3,< 1000,O=C(COc1ccccc1-c1ccc(F)nc1)N1CCC(CCc2ccc3c(c2)OCCCO3)CC1 [Compound 266]
4,< 1000,CC(C)Oc1cccc(CCC2CCN(C(=O)COc3ccccc3-c3cc(C#N)ccc3OCc3ccccc3)CC2)c1 [Compound 440]
5,1000 to 10000,O=C(COc1ccccc1-c1ccc2[nH]cnc2c1)N1CCC(CCc2ccccc2)CC1 [Compound 370]
6,< 1000,CC1Oc2ccc(CCC3CCN(C(=O)COc4ccccc4-c4ccccc4)CC3)cc2OC1C (stereo not shown) [Compound 256]
7,1000 to 10000,O=C(CCc1ccccc1-c1ccc(F)cc1)N1CCC(CCc2ccc3c(c2)OCO3)CC1 [Compound 222]
8,1000 to 10000,O=C(COc1cccnc1-c1ccc(F)cc1O)N1CCC(CCc2ccc3c(c2)OCO3)CC1 [Compound 326]
9,< 1000,O=C(COc1ccccc1-c1ccc(Cl)nc1)N1CCC(CCc2ccccc2)CC1 [Compound 271]
10,< 1000,CC1Oc2ccc(CCC3CCN(C(=O)COc4ccccc4-c4ccc5[nH]ncc5c4)CC3)cc2OC1C (stereo not shown) [Compound 268]
11,1000 to 10000,CCOc1ccc(-c2ccccc2OCC(=O)N2CCC(CCc3ccc4c(c3)OCO4)CC2)cc1 [Compound 186]
12,1000 to 10000,COc1c(F)cc(F)cc1-c1ccccc1OCC(=O)N1CCC(CCc2ccc3c(c2)OCO3)CC1 [Compound 242]
13,1000 to 10000,O=C(COc1ccccc1-c1ccccc1)N1CCC(CCc2cc3c(cc2CO)OCO3)CC1 [Compound 285]
14,1000 to 10000,O=C(COc1ccccc1-c1ccncc1)N1CCC(CCc2ccc3c(c2)OCO3)CC1 [Compound 247]
15,10000 to 50000,CN(C)c1ccc(-c2ccccc2OCC(=O)N2CCC(CCc3ccc4c(c3)OCO4)CC2)cc1 [Compound 213]
16,1000 to 10000,O=C(COc1ccccc1-c1ccccc1)N1CCC(CCCc2ccccc2)CC1 [Compound 261]
17,< 1000,CC1CC(CCc2ccccc2)CCN1C(=O)COc1ccccc1-c1ccc(C#N)cc1 (stereo not shown) [Compound 302]
18,< 1000,Cc1nc2cc(-c3ccccc3OCC(=O)N3CCC(CCc4ccc(OC(C)C)cc4)CC3)ccc2[nH]1 [Compound 433]
19,10000 to 50000,COc1cc(CCC2CCN(C(=O)COc3cccnc3-c3ccc(F)cc3O)CC2)ccc1OCCN1CCOCC1 [Compound 381]
20,< 1000,O=C(COc1ccccc1-c1ccc(F)cc1O)N1CCC(CCc2cccc(OC(F)F)c2)CC1 [Compound 435]
21,< 1000,CC(C)Oc1cccc(CCC2CCN(C(=O)COc3ccccc3-c3ccc4[nH]cnc4c3)CC2)c1 [Compound 398]
22,< 1000,CC(C)Oc1cccc(CCC2CCN(C(=O)COc3cccnc3-c3ccc(F)cc3O)CC2)c1 [Compound 408]
23,10000 to 50000,O=C(CCc1ccccc1-c1ccccc1)N1CCC(CCc2ccc3c(c2)OCO3)CC1 [Compound 219]
24,1000 to 10000,O=C(COc1ccccc1-c1cccc(F)c1)N1CCC(CCc2ccc3c(c2)OCO3)CC1 [Compound 187]
25,< 1000,O=C(COc1ccccc1-c1ccc2[nH]cnc2c1)N1CCC(CCc2cccc3ccccc23)CC1 [Compound 402]
26,< 1000,COc1cccc(CCC2CCN(C(=O)COc3cccnc3-c3ccc(F)cc3O)CC2)c1 [Compound 350]

row,IC50 [nM],SMILES
1,1000 to 10000,COc1ccc(-c2ccccc2OCC(=O)N2CCC(CCc3ccc4c(c3)OCO4)CC2)cc1 [Compound 189]
2,1000 to 10000,O=C(COc1cccnc1-c1ccc(F)cc1O)N1CCC(CCc2ccccc2)CC1 [Compound 330]
3,10000 to 50000,O=C(C[S+]([O-])c1ccccc1-c1ccccc1)N1CCC(CCc2ccccc2)CC1 (stereo not shown) [Compound 312]
4,1000 to 10000,O=C(COc1ccccc1-c1ccc(F)cc1O)N1CCC(CCc2ccc(F)c(C(F)(F)F)c2)CC1 [Compound 307]
5,< 1000,O=C(COc1ccccc1-c1ccc2[nH]ncc2c1)N1CCC(CCc2ccccc2)CC1 [Compound 272]
6,1000 to 10000,COc1cccc(CCC2CCN(C(=O)CCc3ccccc3-c3ccc(C#N)cc3)CC2)c1 [Compound 227]
7,< 1000,COc1cccc(CCC2CCN(C(=O)COc3ccccc3-c3ccc(F)cc3O)CC2)c1 [Compound 304]
8,1000 to 10000,Cc1cnc(CCC2CCN(C(=O)COc3ccc(C#N)cc3-c3ccc(C#N)cc3)CC2)cn1 [Compound 426]
9,10000 to 50000,O=C(COc1ncccc1-c1ccc(F)cc1O)N1CCC(CCc2ccc3c(c2)OCO3)CC1 [Compound 329]
10,10000 to 50000,Nc1ccc(-c2ccccc2OCC(=O)N2CCC(CCc3ccc4c(c3)OCO4)CC2)cc1 [Compound 195]
11,10000 to 50000,COc1cccc(CCC2CCN(C(=O)CCc3ccccc3-c3ccccc3)CC2)c1 [Compound 221]
12,1000 to 10000,O=C(COc1ccccc1-c1ccc2[nH]cnc2c1)N1CCC(CCc2ccc3c(c2)OCO3)CC1 [Compound 382]
13,1000 to 10000,O=C(COc1cccnc1-c1ccc(F)cc1O)N1CCC(CCc2ccc(OCCN3CCOCC3)cc2)CC1 [Compound 358]
14,1000 to 10000,O=C(COc1ccccc1-c1cnccn1)N1CCC(CCc2ccccc2)CC1 [Compound 423]
15,1000 to 10000,COc1cccc(CCC2CCN(C(=O)COc3cccnc3-c3ccc4c(ccn4C)c3)CC2)c1 [Compound 378]
16,10000 to 50000,NS(=O)(=O)c1ccc(-c2ccccc2OCC(=O)N2CCC(CCc3ccc4c(c3)OCO4)CC2)cc1 [Compound 181]
17,< 1000,O=C(COc1ccccc1-c1ccccc1)N1CCC(CCc2ccc(F)c(F)c2)CC1 [Compound 120]
18,1000 to 10000,N#Cc1ccc(-c2cc(C(N)=O)ccc2OCC(=O)N2CCC(CCc3ccccc3)CC2)cc1 [Compound 321]
19,< 1000,CC(C)Oc1ccccc1CCC1CCN(C(=O)COc2ccccc2-c2ccc(F)cc2O)CC1 [Compound 431]
20,< 1000,O=C(COc1ccccc1-c1cccc(Cl)c1)N1CCC(CCc2ccc3c(c2)OCO3)CC1 [Compound 201]
21,< 1000,C#CCOc1cccc(CCC2CCN(C(=O)COc3ccc(C#N)cc3-c3ccc(C(=O)c4ccccc4)cc3)CC2)c1 [Compound 418]
22,10000 to 50000,Cc1cc(F)ncc1-c1ccccc1OCC(=O)N1CCC(CCc2ccc3c(c2)OCO3)CC1 [Compound 248]
23,1000 to 10000,N#Cc1ccc(-c2ncccc2OCC(=O)N2CCC(CCc3ccc4c(c3)OCCO4)CC2)cn1 [Compound 335]
24,< 1000,O=C(c1ccccc1)c1ccc(-c2ccccc2OCC(=O)N2CCC(CCc3cccc(O)c3)CC2)cc1 [Compound 415]
25,1000 to 10000,O=C(COc1cccnc1-c1ccc(F)nc1)N1CCC(CCc2ccc3c(c2)OCCO3)CC1 [Compound 341]
26,< 1000,N#Cc1ccc(-c2cc(C#N)ccc2OCC(=O)N2CCC(CCc3cccc(OC(F)F)c3)CC2)cc1 [Compound 436]

row,IC50 [nM],SMILES
1,10000 to 50000,COc1cccc(CCC2CCN(C(=O)C[S+]([O-])c3ccccc3-c3ccccc3)CC2)c1 (stereo not shown) [Compound 313]
2,1000 to 10000,N#Cc1cccc(-c2ccccc2OCC(=O)N2CCC(CCc3ccc4c(c3)OCO4)CC2)c1 [Compound 192]
3,< 1000,N#Cc1ccc(-c2ccccc2OCC(=O)N2CCC(CCc3ccc4c(c3)OCO4)CC2)cn1 [Compound 289]
4,< 1000,N#Cc1ccc(-c2ccccc2OCC(=O)N2CCC(CCc3cccc(OC(F)F)c3)CC2)cc1 [Compound 434]
5,1000 to 10000,N#Cc1ccc(OCC(=O)N2CCC(CCc3cccc(OCCN4CCOCC4)c3)CC2)c(-c2ccc(F)cc2O)c1 [Compound 354]
6,10000 to 50000,O=C(O)c1cncc(-c2ccccc2OCC(=O)N2CCC(CCc3ccc4c(c3)OCO4)CC2)c1 [Compound 196]
7,1000 to 10000,Cn1ccc2cc(-c3ccccc3OCC(=O)N3CCC(CCc4ccc5c(c4)OCO5)CC3)ccc21 [Compound 384]
8,1000 to 10000,Cc1cnc(C#CC2CCN(C(=O)COc3ccc(C#N)cc3-c3ccc(C#N)cc3)CC2)cn1 [Compound 425]
9,1000 to 10000,O=C1COc2ccc(CCC3CCN(C(=O)COc4ccccc4-c4ccc(F)cc4)CC3)cc2N1 [Compound 258]
10,1000 to 10000,Cc1ccc(-c2ccccc2OCC(=O)N2CCC(CCc3ccc4c(c3)OCO4)CC2)cc1 [Compound 202]
11,< 1000,O=C(COc1ccccc1-c1ccccc1Oc1ccccc1)N1CCC(CCc2ccc3c(c2)OCO3)CC1 [Compound 216]
12,1000 to 10000,COc1cccc(CCC2CCN(C(=O)COc3cccnc3-c3ccc4[nH]ncc4c3)CC2)c1 [Compound 362]
13,< 1000,CCOc1cccc(-c2ccccc2OCC(=O)N2CCC(CCc3ccc4c(c3)OCO4)CC2)c1 [Compound 206]
14,< 1000,O=C(COc1ccccc1-c1ccc(Cl)cc1)N1CCC(CCc2ccc3c(c2)OCO3)CC1 [Compound 190]
15,< 1000,N#Cc1ccc(OCC(=O)N2CCC(CCc3ccc(OCCN4CCOCC4)cc3)CC2)c(-c2ccc(F)cc2O)c1 [Compound 357]
16,10000 to 50000,Cc1cc(F)ncc1-c1ncccc1OCC(=O)N1CCC(CCc2ccc3c(c2)OCCO3)CC1 [Compound 336]
17,1000 to 10000,O=C(COc1ccccc1-c1ccnc(N2CCOCC2)c1)N1CCC(CCc2ccc3c(c2)OCO3)CC1 [Compound 161]
18,< 1000,CCOc1ccc(CCC2CCN(C(=O)COc3ccccc3-c3ccc(C(=O)c4ccccc4)cc3)CC2)cc1 [Compound 311]
19,1000 to 10000,CCc1ccc(OCC(=O)N2CCC(CCc3ccc4c(c3)OCO4)CC2)c(-c2ccc(C#N)cc2)c1 [Compound 274]
20,< 1000,O=C(COc1cccnc1-c1ccc(F)cc1O)N1CCC(CCc2ccc3c(c2)OCCO3)CC1 [Compound 337]
21,< 1000,C#Cc1ccc(-c2ccccc2OCC(=O)N2CCC(CCc3ccc4c(c3)OCO4)CC2)cc1 [Compound 250]
22,1000 to 10000,CCOC(=O)c1cccc(-c2ccccc2OCC(=O)N2CCC(CCc3ccc4c(c3)OCO4)CC2)c1 [Compound 159]
23,< 1000,Cc1nc2cc(-c3ccccc3OCC(=O)N3CCC(CCc4ccc5c(c4)OCO5)CC3)ccc2[nH]1 [Compound 388]
24,1000 to 10000,CCc1ccc(OCC(=O)N2CCC(CCc3ccc4c(c3)OCO4)CC2)c(-c2ccc(Cl)nc2)c1 [Compound 275]

# Reference: patent publication US10899747B2, “Biaryl piperidine amide compounds and methods of use thereof” (Athenex, Inc., priority 2017, dated 2021)
